# Data reported in article PMC4080982, “Interactions of antagonists with subtypes of inositol 1,4,5-trisphosphate (IP3) receptor” (British Journal of Pharmacology, 2014).
# Columns and labels:
# [1] = target: T1, rat IP3R1 (Rattus norvegicus, UniProt P29994); test: IP3-evoked Ca^2+ release from permeabilized DT40-IP3R1 cells; assay type: cell-based
# T1 construct: different for NTs (NT2 > NT1 > > NT3) and full-length IP3Rs (IP3R3 > IP3R1 ≥ IP3R2); expressed in transfected cells
# Procedure: (§1) We used DT40 cells lacking endogenous IP3Rs (Sugawara et al., [1997]), but stably expressing rat IP3R1 (GenBank accession number GQ233032.1; Pantazaka and Taylor, [2011]), mouse IP3R2 (GU980658.1; Tovey et al., [2010]) or rat IP3R3 (GQ233031.1; Rahman et al., [2009]). Cells were grown in suspension in RPMI 1640 medium supplemented with 10% FBS, 1% heat-inactivated chicken serum, 2 mM glutamine and 50 μM 2-mercaptoethanol at 37°C in humidified air containing 5% CO2. Cells were used or passaged when they reached a density of ∼1.5 × 10^6 cells mL^−1.
# (§2) A low-affinity Ca^2+ indicator trapped within the ER of permeabilized DT40 cells was used to measure IP3-evoked Ca^2+ release (Tovey et al., [2006]; Saleem et al., [2012]). Briefly, the ER was loaded with indicator by incubating cells (∼5 × 10^7 mL^−1) in the dark with Mag-fluo-4AM (20 μM) in HEPES-buffered saline (HBS) containing 0.02% (v/v) Pluronic F127 for 1 h at 22°C. HBS had the following composition: 135 mM NaCl, 5.9 mM KCl, 11.6 mM HEPES, 1.5 mM CaCl2, 11.5 mM glucose, 1.2 mM MgCl2, pH 7.3. After permeabilization of the plasma membrane with saponin (10 μg·mL^−1, 4 min, 37°C) in Ca^2+-free cytosol-like medium (CLM), permeabilized cells were washed (650× g, 2 min) and resuspended (∼10^7 mL^−1) in Mg^2+-free CLM containing carbonyl cyanide 4-(trifluoromethoxy) phenylhydrazone (FCCP, 10 μM) to inhibit mitochondria, and supplemented with CaCl2 to give a final free [Ca^2+] of 220 nM after addition of 1.5 mM MgATP. Ca^2+-free CLM had the following composition: 2 mM NaCl, 140 mM KCl, 1 mM EGTA, 20 mM PIPES, 2 mM MgCl2, pH 7.0. Permeabilized cells were then distributed into 96-well plates (50 μL, 5 × 10^5 cells per well), centrifuged (300× g, 2 min) and used for experiments at 20°C. Addition of MgATP (1.5 mM) allowed Ca^2+ uptake by the ER, which was monitored at intervals of ∼1 s using a FlexStation-3 plate reader (MDS Analytical Devices, Berkshire, UK; Tovey et al., [2006]). After 2 min, when the ER had loaded to steady-state with Ca^2+, IP3 was added with CPA (10 μM) to inhibit further Ca^2+ uptake. IP3-evoked Ca^2+ release was expressed as a fraction of that released by ionomycin (1 μM; Tovey et al., [2006]). Similar methods were used to measure IP3-evoked Ca^2+ release from intact or permeabilized HEK cells (Tovey et al., [2008]). The timings of antagonist additions are described in the figure legends. The affinity of each competitive antagonist (pKD) was determined from the intercept on the abscissa of the Schild plot.
# (§3) Concentration–effect relationships were fitted to Hill equations using Prism (version 5.0, GraphPad, San Diego, CA, USA), from which Hill coefficients (h), the fraction of the intracellular Ca^2+ stores released by a maximally effective concentrations of IP3, and pEC50 values were calculated.
# [2] = target: T2, mouse IP3R2 (Mus musculus, UniProt Q9Z329); test: IP3-evoked Ca^2+ release from permeabilized DT40-IP3R2 cells; assay type: cell-based
# T2 construct: different for NTs (NT2 > NT1 > > NT3) and full-length IP3Rs (IP3R3 > IP3R1 ≥ IP3R2); expressed in transfected cells
# T2 sequence (Q9Z329 whole entry): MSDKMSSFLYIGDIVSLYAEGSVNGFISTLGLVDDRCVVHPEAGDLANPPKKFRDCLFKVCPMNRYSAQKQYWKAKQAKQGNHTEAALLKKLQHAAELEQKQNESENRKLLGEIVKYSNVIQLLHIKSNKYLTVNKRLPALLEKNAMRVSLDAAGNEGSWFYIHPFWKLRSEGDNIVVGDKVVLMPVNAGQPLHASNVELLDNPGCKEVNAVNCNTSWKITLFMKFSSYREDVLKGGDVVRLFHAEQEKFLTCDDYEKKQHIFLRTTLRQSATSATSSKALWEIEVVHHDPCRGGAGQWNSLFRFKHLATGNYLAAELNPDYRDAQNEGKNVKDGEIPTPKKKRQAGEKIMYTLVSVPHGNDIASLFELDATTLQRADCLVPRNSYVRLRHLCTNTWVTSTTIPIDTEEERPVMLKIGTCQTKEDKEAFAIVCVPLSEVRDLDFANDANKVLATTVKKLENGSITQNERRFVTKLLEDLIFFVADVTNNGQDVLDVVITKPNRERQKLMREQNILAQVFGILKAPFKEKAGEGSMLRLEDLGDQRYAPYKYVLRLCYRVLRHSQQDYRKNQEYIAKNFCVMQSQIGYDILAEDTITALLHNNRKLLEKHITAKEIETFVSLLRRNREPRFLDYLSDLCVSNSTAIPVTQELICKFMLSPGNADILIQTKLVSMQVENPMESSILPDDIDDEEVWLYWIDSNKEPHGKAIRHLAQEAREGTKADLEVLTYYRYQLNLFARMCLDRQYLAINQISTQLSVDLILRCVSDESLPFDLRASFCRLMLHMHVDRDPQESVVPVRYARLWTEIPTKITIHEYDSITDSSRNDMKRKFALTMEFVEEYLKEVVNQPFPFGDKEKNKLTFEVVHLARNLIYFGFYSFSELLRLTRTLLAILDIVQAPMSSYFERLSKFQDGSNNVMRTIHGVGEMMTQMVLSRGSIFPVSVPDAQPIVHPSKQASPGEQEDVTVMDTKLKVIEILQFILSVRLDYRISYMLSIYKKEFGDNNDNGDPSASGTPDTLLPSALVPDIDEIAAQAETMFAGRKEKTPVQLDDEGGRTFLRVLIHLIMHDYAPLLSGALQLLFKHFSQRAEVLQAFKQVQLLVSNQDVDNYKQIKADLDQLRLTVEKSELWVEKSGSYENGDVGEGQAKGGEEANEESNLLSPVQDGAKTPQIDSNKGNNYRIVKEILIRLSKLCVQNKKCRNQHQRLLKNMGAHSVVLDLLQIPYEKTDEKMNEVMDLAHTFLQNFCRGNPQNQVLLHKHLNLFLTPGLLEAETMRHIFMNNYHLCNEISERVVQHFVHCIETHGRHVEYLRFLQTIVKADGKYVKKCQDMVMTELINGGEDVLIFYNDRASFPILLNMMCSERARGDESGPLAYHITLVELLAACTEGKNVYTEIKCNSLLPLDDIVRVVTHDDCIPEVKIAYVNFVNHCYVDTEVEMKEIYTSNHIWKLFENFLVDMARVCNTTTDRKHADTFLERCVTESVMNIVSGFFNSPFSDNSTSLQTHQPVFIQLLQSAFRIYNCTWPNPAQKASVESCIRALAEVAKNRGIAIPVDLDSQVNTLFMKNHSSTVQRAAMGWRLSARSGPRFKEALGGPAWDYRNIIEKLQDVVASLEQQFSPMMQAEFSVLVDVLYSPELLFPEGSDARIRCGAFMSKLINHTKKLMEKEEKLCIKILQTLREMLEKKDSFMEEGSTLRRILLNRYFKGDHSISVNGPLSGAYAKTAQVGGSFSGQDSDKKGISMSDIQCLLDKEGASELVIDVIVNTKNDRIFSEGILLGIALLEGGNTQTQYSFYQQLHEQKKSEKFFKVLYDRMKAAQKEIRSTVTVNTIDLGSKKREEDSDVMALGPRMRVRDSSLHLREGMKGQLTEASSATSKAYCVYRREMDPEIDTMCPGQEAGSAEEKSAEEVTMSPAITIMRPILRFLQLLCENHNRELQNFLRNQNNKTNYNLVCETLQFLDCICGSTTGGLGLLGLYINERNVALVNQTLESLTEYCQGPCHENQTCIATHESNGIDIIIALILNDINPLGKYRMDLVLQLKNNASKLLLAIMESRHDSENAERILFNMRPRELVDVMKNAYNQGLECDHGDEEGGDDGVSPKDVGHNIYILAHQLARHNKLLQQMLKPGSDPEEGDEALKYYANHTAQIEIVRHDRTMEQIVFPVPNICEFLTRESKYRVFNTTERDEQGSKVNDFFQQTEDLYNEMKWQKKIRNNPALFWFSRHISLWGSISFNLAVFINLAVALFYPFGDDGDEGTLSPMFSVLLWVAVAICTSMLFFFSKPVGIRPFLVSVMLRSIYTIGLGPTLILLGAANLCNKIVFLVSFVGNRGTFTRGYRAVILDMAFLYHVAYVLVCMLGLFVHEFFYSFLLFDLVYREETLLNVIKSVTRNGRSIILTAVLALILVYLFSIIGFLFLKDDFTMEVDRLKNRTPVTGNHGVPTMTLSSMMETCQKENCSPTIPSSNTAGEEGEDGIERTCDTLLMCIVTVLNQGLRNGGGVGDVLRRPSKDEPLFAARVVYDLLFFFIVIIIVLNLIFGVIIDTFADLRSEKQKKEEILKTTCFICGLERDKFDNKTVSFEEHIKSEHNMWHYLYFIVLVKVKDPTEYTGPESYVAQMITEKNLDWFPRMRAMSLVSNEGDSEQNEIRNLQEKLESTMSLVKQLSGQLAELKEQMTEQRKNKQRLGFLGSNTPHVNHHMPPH
# Procedure: as §1, §2, §3
# [3] = target: T3, rat IP3R3 (Rattus norvegicus, UniProt Q63269); test: IP3-evoked Ca^2+ release from permeabilized DT40-IP3R3 cells; assay type: cell-based
# T3 construct: different for NTs (NT2 > NT1 > > NT3) and full-length IP3Rs (IP3R3 > IP3R1 ≥ IP3R2); expressed in transfected cells
# Procedure: as §1, §2, §3
# [4] = test system: cerebellar membranes (IP3R1); test: ^3H-IP3 binding to cerebellar membranes; conditions: ^3H-IP3 1.5 nM, in CLM
# Procedure: (§4) Reactions were terminated after 5 min by centrifugation (20,000× g, 5 min) for membranes, or by centrifugation after addition of poly(ethylene glycol)-8000 [30% (w/v), 500 μL] and γ-globulin (30 μL, 25 mg·mL^−1) for NT. […] Results were fitted to Hill equations using Prism, from which IC50 values were calculated.
# [5] = test system: permeabilized DT40-IP3R1-3 cells; test: Ca^2+ uptake and Ca^2+ content of the intracellular stores of permeabilized DT40 cells; assay type: cell-based
# Procedure: Briefly, the ER was loaded with indicator by incubating cells (∼5 × 10^7 mL^−1) in the dark with Mag-fluo-4AM (20 μM) in HEPES-buffered saline (HBS) containing 0.02% (v/v) Pluronic F127 for 1 h at 22°C. […] Ca^2+-free CLM had the following composition: 2 mM NaCl, 140 mM KCl, 1 mM EGTA, 20 mM PIPES, 2 mM MgCl2, pH 7.0. Permeabilized cells were then distributed into 96-well plates (50 μL, 5 × 10^5 cells per well), centrifuged (300× g, 2 min) and used for experiments at 20°C. […] After 2 min, when the ER had loaded to steady-state with Ca^2+, IP3 was added with CPA (10 μM) to inhibit further Ca^2+ uptake. […] The timings of antagonist additions are described in the figure legends. The affinity of each competitive antagonist (pKD) was determined from the intercept on the abscissa of the Schild plot.
# [6] = test system: HEK cells; test: Carbachol-evoked Ca^2+ signals in intact HEK cells; assay type: cell-based; conditions: Homo sapiens, HEK293; intact fluo-4-loaded HEK cells; control cells; read-out: pEC50 for the carbachol-evoked Ca^2+ signals (converted)
# Procedure: as §2
# [7] = target: T4, NT2 (residues 1–604 of mouse IP3R2) (Mus musculus, UniProt Q9Z329); test: Equilibrium-competition binding with ^3H-IP3 to purified NT2; conditions: NT versus corresponding full-length IP3R
# T4 construct: N-terminal fragments (NT, residues 1–604) of rat IP3R1, mouse IP3R2 and rat IP3R3; GST (cleaved yes); made in house; host or cells: E. coli BL21-CodonPlus (DE3)-RILP
# T4 sequence (Q9Z329 1-604): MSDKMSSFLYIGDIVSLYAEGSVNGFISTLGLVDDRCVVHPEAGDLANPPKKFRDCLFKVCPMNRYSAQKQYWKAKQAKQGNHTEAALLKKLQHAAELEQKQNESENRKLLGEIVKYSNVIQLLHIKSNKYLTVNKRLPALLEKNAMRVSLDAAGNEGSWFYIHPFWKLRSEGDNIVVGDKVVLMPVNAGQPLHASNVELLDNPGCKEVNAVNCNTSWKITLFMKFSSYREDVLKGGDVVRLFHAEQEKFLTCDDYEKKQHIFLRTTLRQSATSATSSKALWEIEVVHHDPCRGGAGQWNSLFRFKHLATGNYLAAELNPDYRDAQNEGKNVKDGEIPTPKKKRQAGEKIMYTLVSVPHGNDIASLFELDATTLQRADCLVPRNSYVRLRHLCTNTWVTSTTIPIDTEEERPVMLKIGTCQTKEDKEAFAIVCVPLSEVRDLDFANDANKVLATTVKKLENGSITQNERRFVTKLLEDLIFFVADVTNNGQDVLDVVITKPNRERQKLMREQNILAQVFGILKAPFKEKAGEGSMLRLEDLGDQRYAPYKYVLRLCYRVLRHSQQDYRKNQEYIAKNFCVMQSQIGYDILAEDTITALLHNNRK
# Procedure: The plasmids used for bacterial expression of GST-tagged N-terminal fragments (NT, residues 1–604) of rat IP3R1, mouse IP3R2 and rat IP3R3 have been described, and their coding sequences have been confirmed (Khan et al., [2013]). Plasmids were transformed into BL21-CodonPlus (DE3)-RILP competent cells (Rossi and Taylor, [2011]), and grown for 12 h at 37°C in 20 mL of Luria-Bertani (LB) medium containing carbecillin (50 μg·mL^−1). The volume of medium was then increased to 1 L, and the incubation was continued at 37°C for 3–4 h until the OD600 reached 1–1.5. Protein expression was induced by addition of IPTG (0.5 mM) for 20 h at 15°C. Bacteria were harvested (6000× g, 5 min), washed twice with cold PBS, and the pellet was suspended (∼10^9 cells·mL^−1) in 50 mL of Tris-EDTA medium (TEM: 50 mM Tris, 1 mM EDTA, pH 8.3) supplemented with 10% PopCulture, 1 mM 2-mercaptoethanol and protease inhibitor cocktail (Roche, Burgess Hill, West Sussex, UK; 1 tablet per 50 mL). […]
# as §4
# [8] = IP3R1, AdA-evoked Ca^2+ release
# [9] = IP3R1, IP3-evoked Ca^2+ release
# [10] = IP3R1, heparin 400 μg·mL^−1, Δ = control – response with antagonist
# [11] = IP3R2, IP3-evoked Ca^2+ release
# [12] = IP3R3, AdA-evoked Ca^2+ release
compound,measurement,setting,value
"NCCOB(c1ccccc1)c1ccccc1 [2-APB, 2-aminoethoxydiphenyl borate]",ΔMax,"[1]; IP3R1, 2-APB 50 μM",0 ± 4%
same,ΔpEC50,"[1]; IP3R1, 2-APB 50 μM added 35 s before IP3",0.84 ± 0.12 M
same,effect on IP3-evoked Ca^2+ release,"[2]; DT40-IP3R2 cells, 2-APB 50 μM",no significant effect
same,ΔMax,"[2]; IP3R2, 2-APB 50 μM",0 ± 4%
same,effect on IP3-evoked Ca^2+ release,"[2]; IP3R2, 2-APB 100 μM",no effect
same,effect on IP3-evoked Ca^2+ release,"[3]; DT40-IP3R3 cells, 2-APB 50 μM",no significant effect
same,ΔMax,"[3]; IP3R3, 2-APB 50 μM",8 ± 4%
same,ΔpEC50,"[3]; IP3R3, 2-APB 50 μM",0.02 ± 0.09 M
same,effect on IP3-evoked Ca^2+ release,"[3]; IP3R3, 2-APB 100 μM",some inhibition
same,effect on binding of ^3H-IP3 to cerebellar membranes,[4],unaffected
same,effect on Ca^2+ uptake by the ER,"[5]; permeabilized DT40-IP3R1 cells, 50 μM 2-APB",no effect
same,effect on steady-state Ca^2+ content of the ER,"[5]; permeabilized DT40-IP3R1 cells, 2-APB concentrations higher than 50 μM",reduced the steady-state Ca^2+ content
"Nc1ncnc2c1ncn2[C@@H]1O[C@H](CO)[C@@H](O[C@H]2O[C@H](CO)[C@@H](OP(=O)(O)O)[C@H](OP(=O)(O)O)[C@H]2O)[C@H]1OP(=O)(O)O [AdA, adenophostin A]",EC50,"[1]; permeabilized DT40-IP3R1 cells, read-out: pEC50 (IP3 or AdA-evoked Ca^2+ release) (converted)",4.47 nM
same,EC50,"[3]; permeabilized DT40-IP3R3 cells, read-out: pEC50 (IP3 or AdA-evoked Ca^2+ release) (converted)",19.5 nM
Cn1c(=O)c2c(ncn2C)n(C)c1=O [Caffeine],effect on binding of ^3H-IP3 to cerebellar membranes,[4],without affecting
same,effect on Ca^2+ content of the intracellular stores,"[5]; DT40-IP3R1-3 cells, caffeine 70 mM added 2 min before ATP",significantly reduced
"C[N+](C)(C)CCOC(N)=O [carbachol, Carbachol]",EC50,[6],10200 nM
Heparin,KD for heparin (Schild plot),[1]; [8],6.9 µg/mL
same,slope of the Schild plots,[1]; [8],0.94 ± 0.03
same,KD for heparin (Schild plot),[1]; [9],4.1 µg/mL
same,slope of the Schild plots,[1]; [9],0.95 ± 0.02
same,ΔMax,[1]; [10],−7 ± 2%
same,ΔpEC50,[1]; [10],1.88 ± 0.05 M
same,pEC50(IP3)-pKD(heparin),"[1]; IP3R1, paired comparisons",2.08 ± 0.02
same,KD for heparin (Schild plot),[2]; [11],22 µg/mL
same,slope of the Schild plots,[2]; [11],0.97 ± 0.06
same,ΔMax,"[2]; IP3R2, heparin 800 μg·mL^−1",−4 ± 2%
same,ΔpEC50,"[2]; IP3R2, heparin 800 μg·mL^−1",1.49 ± 0.09 M
same,pEC50(IP3)-pKD(heparin),"[2]; IP3R2, paired comparisons",2.16 ± 0.09
same,KD for heparin (Schild plot),[3]; [12],2.1 µg/mL
same,slope of the Schild plots,[3]; [12],0.98 ± 0.04
same,slope of the Schild plots,"[3]; IP3R3, IP3-evoked Ca^2+ release",1.14 ± 0.41
same,KD for heparin (Schild plot),"[3]; IP3R3, IP3-evoked Ca^2+ release, 40% Ca^2+ release",2.8 µg/mL
same,ΔMax,"[3]; IP3R3, heparin 400 μg·mL^−1",−3 ± 3%
same,ΔpEC50,"[3]; IP3R3, heparin 400 μg·mL^−1",2.34 ± 0.07 M
same,pEC50(IP3)-pKD(heparin),"[3]; IP3R3, paired comparisons",1.11 ± 0.08
same,affinity of the NT for heparin relative to that measured in functional analyses / full-length IP3R,[7],up to 2000 fold
